{
  "source": "ChEMBL document CHEMBL1201862",
  "about": "“PubChem BioAssay data set” (2004)",
  "assay_in_all_cases": "NCI anticancer screen, dose series, 48 h",
  "key": {"BT-549": {"test_system": "BT-549"}, "CCRF-CEM": {"test_system": "CCRF-CEM"}, "NCI-H460": {"test_system": "NCI-H460"}, "DU-145": {"test_system": "DU-145"}, "MDA-MB-231": {"test_system": "MDA-MB-231"}, "A549": {"test_system": "A549"}, "SK-OV-3": {"test_system": "SK-OV-3"}, "SR": {"test_system": "SR"}, "NCI-H522": {"test_system": "NCI-H522"}, "NCI-H226": {"test_system": "NCI-H226"}, "RPMI-8226": {"test_system": "RPMI-8226"}, "OVCAR-5": {"test_system": "OVCAR-5"}, "SF-268": {"test_system": "SF-268"}, "OVCAR-4": {"test_system": "OVCAR-4"}, "786-0": {"test_system": "786-0"}, "UACC-257": {"test_system": "UACC-257"}, "IGROV-1": {"test_system": "IGROV-1"}, "SNB-19": {"test_system": "SNB-19"}, "SF-295": {"test_system": "SF-295"}, "HL-60": {"test_system": "HL-60"}, "T47D": {"test_system": "T47D"}, "UACC-62": {"test_system": "UACC-62"}, "MDA-MB-435": {"test_system": "MDA-MB-435"}, "OVCAR-3": {"test_system": "OVCAR-3"}, "SK-MEL-28": {"test_system": "SK-MEL-28"}, "HT-29": {"test_system": "HT-29"}, "CAKI-1": {"test_system": "CAKI-1"}, "MOLT-4": {"test_system": "MOLT-4"}, "SW-620": {"test_system": "SW-620"}, "COLO 205": {"test_system": "COLO 205"}, "SNB-75": {"test_system": "SNB-75"}, "UO-31": {"test_system": "UO-31"}, "K562": {"test_system": "K562"}, "U-251": {"test_system": "U-251"}, "SF-539": {"test_system": "SF-539"}, "LOX IMVI": {"test_system": "LOX IMVI"}, "HCT-116": {"test_system": "HCT-116"}, "NCI-H23": {"test_system": "NCI-H23"}, "OVCAR-8": {"test_system": "OVCAR-8"}, "Malme-3M": {"test_system": "Malme-3M"}, "HOP-62": {"test_system": "HOP-62"}, "SK-MEL-5": {"test_system": "SK-MEL-5"}, "PC-3": {"test_system": "PC-3"}, "M14": {"test_system": "M14"}, "KM12": {"test_system": "KM12"}, "HOP-92": {"test_system": "HOP-92"}, "HCC 2998": {"test_system": "HCC 2998"}, "HCT-15": {"test_system": "HCT-15"}, "SK-MEL-2": {"test_system": "SK-MEL-2"}, "NCI/ADR-RES": {"test_system": "NCI/ADR-RES"}, "A498": {"test_system": "A498"}, "Hs-578T": {"test_system": "Hs-578T"}, "MDA-N": {"test_system": "MDA-N"}, "EKVX": {"test_system": "EKVX"}, "MCF7": {"test_system": "MCF7"}, "ACHN": {"test_system": "ACHN"}, "RXF 393": {"test_system": "RXF 393"}, "TK-10": {"test_system": "TK-10"}},
  "note": "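Five concentrations, 48 hours, 96-well plates. The concentration for 50% growth inhibition is given as GI50.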 The source made the active and inactive calls. No stated cut-off is given here; in the data, active = GI50 up to about 1.1 µM and inactive = higher.",
  "data": [
    {"smiles": "N#Cc1c(-c2ccc(Cl)cc2)cc(-c2ccc(Nc3ccnc4cc(Cl)ccc34)cc2)[nH]c1=O", "values": [
      {"measurement": "GI50", "setting": "BT-549", "result": "19.6 µM (inactive)"},
      {"measurement": "GI50", "setting": "CCRF-CEM", "result": "16 µM (inactive)"},
      {"measurement": "GI50", "setting": "NCI-H460", "result": "> 100 µM (inactive)"},
      {"measurement": "GI50", "setting": "DU-145", "result": "99.3 µM (inactive)"},
      {"measurement": "GI50", "setting": "MDA-MB-231", "result": "34.4 µM (inactive)"},
      {"measurement": "GI50", "setting": "A549", "result": "> 100 µM (inactive)"},
      {"measurement": "GI50", "setting": "SK-OV-3", "result": "34.7 µM (inactive)"},
      {"measurement": "GI50", "setting": "SR", "result": "> 52.5 µM (inactive)"},
      {"measurement": "GI50", "setting": "NCI-H522", "result": "> 38.6 µM (inactive)"},
      {"measurement": "GI50", "setting": "NCI-H226", "result": "> 100 µM (inactive)"},
      {"measurement": "GI50", "setting": "RPMI-8226", "result": "> 62.5 µM (inactive)"},
      {"measurement": "GI50", "setting": "OVCAR-5", "result": "> 61.7 µM (inactive)"},
      {"measurement": "GI50", "setting": "SF-268", "result": "26.2 µM (inactive)"},
      {"measurement": "GI50", "setting": "OVCAR-4", "result": "> 100 µM (inactive)"},
      {"measurement": "GI50", "setting": "786-0", "result": "17.6 µM (inactive)"},
      {"measurement": "GI50", "setting": "UACC-257", "result": "> 100 µM (inactive)"},
      {"measurement": "GI50", "setting": "IGROV-1", "result": "> 100 µM (inactive)"},
      {"measurement": "GI50", "setting": "SNB-19", "result": "27.7 µM (inactive)"},
      {"measurement": "GI50", "setting": "SF-295", "result": "16.6 µM (inactive)"},
      {"measurement": "GI50", "setting": "HL-60", "result": "> 100 µM (inactive)"},
      {"measurement": "GI50", "setting": "T47D", "result": "> 100 µM (inactive)"},
      {"measurement": "GI50", "setting": "UACC-62", "result": "> 100 µM (inactive)"},
      {"measurement": "GI50", "setting": "MDA-MB-435", "result": "> 100 µM (inactive)"},
      {"measurement": "GI50", "setting": "OVCAR-3", "result": "> 100 µM (inactive)"},
      {"measurement": "GI50", "setting": "SK-MEL-28", "result": "> 100 µM (inactive)"},
      {"measurement": "GI50", "setting": "HT-29", "result": "> 100 µM (inactive)"},
      {"measurement": "GI50", "setting": "CAKI-1", "result": "> 100 µM (inactive)"},
      {"measurement": "GI50", "setting": "MOLT-4", "result": "> 58.6 µM (inactive)"},
      {"measurement": "GI50", "setting": "SW-620", "result": "> 100 µM (inactive)"},
      {"measurement": "GI50", "setting": "COLO 205", "result": "> 100 µM (inactive)"},
      {"measurement": "GI50", "setting": "SNB-75", "result": "14.6 µM (inactive)"},
      {"measurement": "GI50", "setting": "UO-31", "result": "> 100 µM (inactive)"},
      {"measurement": "GI50", "setting": "K562", "result": "> 54.5 µM (inactive)"},
      {"measurement": "GI50", "setting": "U-251", "result": "15.5 µM (inactive)"},
      {"measurement": "GI50", "setting": "SF-539", "result": "> 95.7 µM (inactive)"},
      {"measurement": "GI50", "setting": "LOX IMVI", "result": "31.6 µM (inactive)"},
      {"measurement": "GI50", "setting": "HCT-116", "result": "44.2 µM (inactive)"},
      {"measurement": "GI50", "setting": "NCI-H23", "result": "24.7 µM (inactive)"},
      {"measurement": "GI50", "setting": "OVCAR-8", "result": "> 100 µM (inactive)"},
      {"measurement": "GI50", "setting": "Malme-3M", "result": "> 65.8 µM (inactive)"},
      {"measurement": "GI50", "setting": "HOP-62", "result": "15.1 µM (inactive)"},
      {"measurement": "GI50", "setting": "SK-MEL-5", "result": "> 100 µM (inactive)"},
      {"measurement": "GI50", "setting": "PC-3", "result": "> 100 µM (inactive)"},
      {"measurement": "GI50", "setting": "M14", "result": "> 100 µM (inactive)"},
      {"measurement": "GI50", "setting": "KM12", "result": "> 61 µM (inactive)"},
      {"measurement": "GI50", "setting": "HOP-92", "result": "18.1 µM (inactive)"},
      {"measurement": "GI50", "setting": "HCC 2998", "result": "> 100 µM (inactive)"},
      {"measurement": "GI50", "setting": "HCT-15", "result": "> 100", "unit": "µM"},
      {"measurement": "GI50", "setting": "SK-MEL-2", "result": "31.4 µM (inactive)"},
      {"measurement": "GI50", "setting": "NCI/ADR-RES", "result": "> 100 µM (inactive)"},
      {"measurement": "GI50", "setting": "A498", "result": "50.4 µM (inactive)"},
      {"measurement": "GI50", "setting": "Hs-578T", "result": "16.5 µM (inactive)"},
      {"measurement": "GI50", "setting": "MDA-N", "result": "> 100 µM (inactive)"},
      {"measurement": "GI50", "setting": "EKVX", "result": "> 82.2 µM (inactive)"},
      {"measurement": "GI50", "setting": "MCF7", "result": "> 100 µM (inactive)"},
      {"measurement": "GI50", "setting": "ACHN", "result": "32 µM (inactive)"},
      {"measurement": "GI50", "setting": "RXF 393", "result": "30.4 µM (inactive)"},
      {"measurement": "GI50", "setting": "TK-10", "result": "13.1 µM (inactive)"}
    ]}
  ]
}
